According to the supplement of paper PMC10331698:
± gives the standard deviation of the averaged measurements.

Experiments:
Test in all cases: level (log10 ratio to DMSO vehicle control); higher = higher biomarker level / cell amount than vehicle control
Conditions in all cases: in DMSO
[1] = compound: O=C(O)C(F)(F)C(F)(F)C(F)(F)C(F)(F)C(F)(F)C(F)(F)C(F)(F)C(F)(F)C(F)(F)C(F)(F)C(F)(F)C(F)(F)F [Perfluorotridecanoic acid]
Protocol: (§1)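 BioMAP Diversity Plus panel of 12 human primary cell co-culture systems (3C, 4H, LPS, SAg, BT, BF4T, BE3C, CASM3C, HDF3CGF, KF3CT, MyoF, Mphg). Compounds were added 1 h before stimulation and left for 24 h (MyoF 48 h; BT 72 h for soluble read-outs or 6 d for IgG). Biomarkers were read by ELISA, cytotoxicity by SRB, PBMC viability and proliferation by Alamar Blue. Each well value was divided by the mean of 8 DMSO control wells on the same plate and log10 transformed; duplicate blinded samples were tested at 4 concentrations.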

[2] = compound: CNS(=O)(=O)C(F)(F)C(F)(F)C(F)(F)C(F)(F)C(F)(F)C(F)(F)C(F)(F)C(F)(F)F [N-Methylperfluorooctanesulfonamide]
Protocol: as §1

Azathioprine = compound: Cn1cnc([N+](=O)[O-])c1Sc1ncnc2[nH]cnc12 [Azathioprine]
Protocol: as §1

[3] = compound: O=C(O)C(F)(F)OC(F)(F)C(F)(F)OC(F)(F)C(F)(F)C(F)(F)C(F)(F)F [Perfluoro-3,6-dioxadecanoic acid]
Protocol: as §1

[4] = compound: O=S(=O)(O)C(F)(F)C(F)(F)C(F)(F)C(F)(F)C(F)(F)C(F)(F)C(F)(F)C(F)(F)F [Perfluorooctanesulfonic acid]
Protocol: as §1

Hexafluoroglutaric acid = compound: O=C(O)C(F)(F)C(F)(F)C(F)(F)C(=O)O [Hexafluoroglutaric acid]
Protocol: as §1

Test System | level (log10) ([1]; 1500 nM) | level (log10) ([1]; 4400 nM) | level (log10) ([1]; 13000 nM) | level (log10) ([1]; 40000 nM) | level (log10) ([2]; 6700 nM) | level (log10) ([2]; 20000 nM) | level (log10) ([2]; 60000 nM) | level (log10) (Azathioprine; 1400 nM) | level (log10) (Azathioprine; 4200 nM) | level (log10) (Azathioprine; 13000 nM) | level (log10) (Azathioprine; 38000 nM) | level (log10) ([3]; 6700 nM) | level (log10) ([3]; 20000 nM) | level (log10) ([3]; 60000 nM) | level (log10) ([4]; 6700 nM) | level (log10) ([4]; 20000 nM) | level (log10) ([4]; 60000 nM) | level (log10) (Hexafluoroglutaric acid; 6700 nM) | level (log10) (Hexafluoroglutaric acid; 20000 nM) | level (log10) (Hexafluoroglutaric acid; 60000 nM)
3C:CCL2/MCP-1 | 0.0135 ± 0.0078 | -0.021 ± 0.0014 | -0.001 ± 0.0085 | 0.0035 ± 0.0035 | 0.0175 ± 0.0021 | 0.0235 ± 0.028 | 0.031 ± 0.034 | 0.0095 ± 0.0064 | -0.006 | 0.009 ± 0.0014 | -0.0165 ± 0.015 | 0.002 ± 0.0099 | 0.013 ± 0.0057 | 0.0195 ± 0.023 | 0.0115 ± 0.0035 | -0.012 ± 0.0028 | -0.0065 ± 0.013 | -0.0005 ± 0.0035 | 0.0095 ± 0.0035 | 0.028 ± 0.018
3C:CD54/ICAM-1 | 0.001 ± 0.016 | -0.0125 ± 0.019 | -0.0155 ± 0.025 | -0.0105 ± 0.0078 | -0.0265 ± 0.022 | 0.103 ± 0.026 | 0.043 ± 0.0014 | 0.0035 ± 0.005 | -0.014 ± 0.031 | -0.0085 ± 0.0092 | -0.016 ± 0.013 | -0.003 ± 0.028 | -0.0025 ± 0.018 | 0.019 ± 0.011 | 0.004 ± 0.023 | 0.0185 ± 0.019 | 0.071 ± 0.024 | -0.0125 ± 0.018 | -0.0165 ± 0.019 | -0.0175 ± 0.018
3C:CD62E/E-Selectin | -0.0015 ± 0.019 | -0.0045 ± 0.0064 | -0.0005 ± 0.011 | -0.01 ± 0.018 | -0.011 ± 0.025 | 0.01 ± 0.023 | -0.072 ± 0.011 | -0.0005 ± 0.012 | -0.013 ± 0.03 | -0.033 ± 0.0099 | -0.0015 ± 0.0078 | 0.0155 ± 0.043 | -0.001 ± 0.037 | 0.004 ± 0.052 | 0.004 ± 0.0042 | 0.0175 ± 0.018 | 0.0695 ± 0.011 | -0.0035 ± 0.053 | -0.002 ± 0.038 | 0.031 ± 0.014
3C:CD106/VCAM-1 | 0.0125 ± 0.012 | -0.0055 ± 0.016 | -0.0185 ± 0.019 | -0.0165 ± 0.018 | -0.03 ± 0.038 | 0.049 ± 0.024 | -0.0295 ± 0.012 | 0.006 ± 0.017 | -0.0165 ± 0.0078 | -0.0245 ± 0.022 | -0.0595 ± 0.036 | 0.0005 ± 0.013 | -0.0035 ± 0.019 | -0.0135 ± 0.021 | 0.0005 ± 0.026 | 0.0045 ± 0.035 | 0.0295 ± 0.015 | 0.009 ± 0.018 | 0.004 ± 0.021 | -0.008 ± 0.0057
3C:CD141/Thrombomodulin | -0.0075 ± 0.059 | -0.0355 ± 0.079 | -0.042 ± 0.065 | -0.0505 ± 0.071 | -0.002 ± 0.0085 | -0.009 ± 0.018 | -0.0345 ± 0.013 | -0.0275 ± 0.026 | -0.0055 ± 0.036 | -0.041 ± 0.065 | -0.0855 ± 0.049 | -0.014 ± 0.048 | -0.0345 ± 0.039 | -0.016 ± 0.04 | -0.0015 ± 0.012 | -0.0025 ± 0.011 | 0.0455 ± 0.022 | -0.018 ± 0.017 | -0.014 ± 0.011 | -0.034 ± 0.0099
3C:CD142/Tissue Factor | 0.034 ± 0.023 | 0.024 ± 0.042 | 0.0425 ± 0.025 | 0.0615 ± 0.00071 | -0.128 ± 0.0057 | -0.108 ± 0.031 | -0.106 ± 0.012 | 0.02 ± 0.024 | 0.0255 ± 0.046 | 0.042 ± 0.051 | 0.042 ± 0.02 | -0.0245 ± 0.059 | 0.0095 ± 0.015 | -0.074 ± 0.024 | -0.0185 ± 0.07 | -0.0285 ± 0.073 | 0.0315 ± 0.067 | -0.006 ± 0.02 | -0.004 ± 0.028 | -0.0685 ± 0.005
BE3C:Keratin 8/18 | 0.0095 ± 0.0078 | 0.016 ± 0.0042 | -0.0035 ± 0.0021 | 0.005 ± 0.0014 | -0.0025 ± 0.012 | -0.0135 ± 0.0078 | -0.0055 ± 0.023 | -0.009 ± 0.033 | 0.012 ± 0.014 | -0.02 ± 0.047 | -0.0095 ± 0.021 | -0.0075 ± 0.013 | -0.0135 ± 0.026 | 0.027 ± 0.0042 | 0.0205 ± 0.0021 | 0.016 ± 0.011 | -0.073 ± 0.04 | -0.006 ± 0.0085 | -0.018 ± 0.0014 | -0.003 ± 0.0042
BE3C:MMP-1 | -0.014 ± 0.035 | 0.0385 ± 0.05 | 0.0445 ± 0.043 | 0.0615 ± 0.028 | 0.0895 ± 0.03 | 0.0995 ± 0.025 | 0.001 ± 0.054 | -0.0025 ± 0.013 | 0.001 ± 0.0057 | -0.0235 ± 0.019 | -0.0645 ± 0.0021 | 0.067 ± 0.0014 | 0.172 ± 0.0035 | 0.355 ± 0.021 | 0.149 ± 0.067 | 0.155 ± 0.012 | -0.0685 ± 0.26 | -0.011 ± 0.0099 | -0.023 ± 0.016 | 0.007 ± 0.058
BE3C:MMP-9 | -0.0105 ± 0.0035 | 0.0005 ± 0.023 | -0.0065 ± 0.0035 | -0.0235 ± 0.00071 | -0.094 ± 0.0014 | -0.11 ± 0.0057 | -0.102 ± 0.0064 | 0.0075 ± 0.046 | 0.0285 ± 0.04 | -0.0135 ± 0.03 | -0.0485 ± 0.028 | -0.005 ± 0.0099 | 0.007 ± 0.031 | -0.0195 ± 0.0021 | -0.0185 ± 0.018 | -0.117 ± 0.0035 | -0.215 ± 0.086 | -0.0035 ± 0.023 | -0.0025 ± 0.032 | 0.0145 ± 0.042
BE3C:PAI-I | 0.006 ± 0.017 | 0.0335 ± 0.0035 | -0.004 ± 0.042 | -0.0285 ± 0.054 | -0.157 ± 0.013 | -0.162 ± 0.029 | -0.138 ± 0.025 | -0.0235 ± 0.044 | 0.015 ± 0.042 | 0.003 ± 0.05 | -0.071 ± 0.03 | 0.0345 ± 0.021 | 0.009 ± 0.031 | -0.11 ± 0.005 | -0.006 ± 0.0014 | -0.195 ± 0.0028 | -0.301 ± 0.0035 | -0.0205 ± 0.016 | -0.014 ± 0.027 | 0.002 ± 0.03
BE3C:SRB | 0.0085 ± 0.019 | -0.0035 ± 0.0021 | -0.0055 ± 0.0078 | 0.0035 ± 0.0021 | -0.0085 ± 0.00071 | -0.014 ± 0.0085 | 0.0005 ± 0.029 | 0.013 ± 0.016 | -0.005 | -0.0095 ± 0.0078 | -0.0045 ± 0.0092 | -0.0015 ± 0.0064 | -0.0095 ± 0.013 | -0.0435 ± 0.022 | -0.0095 ± 0.0064 | -0.2205 ± 0.00071 | -0.371 ± 0.016 | 0.0035 ± 0.0035 | -0.005 | 0.0125 ± 0.012
BE3C:tPA | 0.096 ± 0.011 | 0.115 ± 0.0021 | 0.0955 ± 0.032 | 0.03 ± 0.0071 | 0.186 ± 0.0057 | 0.192 ± 0.0099 | 0.176 ± 0.005 | -0.005 ± 0.078 | -0.0285 ± 0.083 | -0.108 ± 0.083 | -0.236 ± 0.079 | -0.0345 ± 0.029 | -0.09 ± 0.04 | -0.156 ± 0.018 | 0.119 ± 0.013 | -0.09 ± 0.0099 | -0.253 ± 0.025 | -0.008 ± 0.0014 | -0.0465 ± 0.005 | -0.0085 ± 0.022
BE3C:uPA | -0.0005 ± 0.00071 | 0.008 ± 0.0099 | -0.01 ± 0.02 | -0.0085 ± 0.046 | 0.008 ± 0.0085 | 0.0065 ± 0.0064 | 0.003 ± 0.0014 | -0.0025 ± 0.016 | 0 ± 0.013 | -0.0115 ± 0.019 | -0.041 ± 0.016 | 0.006 ± 0.025 | -0.0045 ± 0.025 | -0.003 ± 0.011 | -0.003 ± 0.0099 | -0.031 | -0.122 ± 0.013 | -0.01 ± 0.0085 | -0.017 ± 0.0042 | -0.0075 ± 0.011
CASM3C:CCL2/MCP-1 | -0.0135 ± 0.0021 | -0.043 ± 0.033 | -0.04 ± 0.033 | 0.0315 ± 0.033 | 0.0095 ± 0.022 | 0.0295 ± 0.012 | 0.0645 ± 0.039 | 0.0135 ± 0.044 | -0.012 ± 0.014 | -0.0195 ± 0.021 | -0.001 ± 0.052 | -0.012 ± 0.0085 | -0.0175 ± 0.013 | 0.043 ± 0.069 | -0.0025 ± 0.015 | -0.0065 ± 0.0064 | 0.019 ± 0.023 | -0.0115 ± 0.033 | -0.024 ± 0.025 | 0.0205 ± 0.039
